Blank lines part the entries; values can stand above or below the compound they belong to.
Experiments:
recombinant eEF2K = recombinant eEF2K (Homo sapiens (Human), UniProt O00418); experiment: eEF2K Kinase-Glo luminescent kinase assay (ATP consumption, peptide substrate); format: biochemical; conditions: average of two to four separate experimental measurements, each the average of three replicates
Method: The following compounds were synthesized using the general methods described above. In the table below, IC50 values are in μM and are the average of two to four separate experimental measurements, each consisting in turn of the average of three replicates. IC50 values were calculated using the methods as described in Example 2. MW was determined by mass spectroscopy analysis, and is expressed as M+1.
To determine the IC50 of compounds of the invention, recombinant eEF2K was diluted in an assay buffer in the presence of calmodulin, a calcium-binding messenger protein expressed in eukaryotic cells, and incubated with peptide substrate Ac-RKKYKFNEDTERRRFL in the presence of Adenosine-5′-triphosphate (ATP) and the test compound. The peptide substrate is efficiently and specifically phosphorylated by eEF2K at a single substrate concentration of 100 μM. Using this peptide, eEF2K activity can be quantitatively determined using a Kinase-Glo® luminescent kinase assay kit (Promega) that measures ATP consumption by EF2K during phosphorylation of the substrate. ATP conversion was recorded using Perkin-Elmer Victor Luminometer. Data was plotted using GraphPad software and IC50 was calculated using 3-parameter sigmoidal curve fit.

[1] = system: breast cancer cell line MDA-MB-231; experiment: Potentiation of doxorubicin effect, CellTiter-Glo cell viability; format: cell-based
Method: The potentiation of doxorubicin effect of eEF2K inhibition by Compound 35 in combination with doxorubicin was evaluated. The breast cancer cell line MDA-MB-231 (ATCC No. HTB-26) was incubated with 0.4 μM doxorubicin for 24 hours, with both a negative control (untreated) group and a group receiving only 10 μM Compound 35 but not doxorubicin.

[2] = system: human bone osteosarcoma cancer cell line MG63; experiment: Cell viability under normal conditions and nutrient deprivation, CellTiter-Glo; format: cell-based
Method: The effect of eEF2K inhibition on the malignant human bone osteosarcoma cancer cell line MG63 (ATCC No. CRL-1427) was evaluated under both normal conditions and during nutrient deprivation. […] One group of cells were grown under normal conditions (advanced MEM/glutamine/10% FBS) and the other group of cells were switched to conditions of nutrient deprivation (HBSS/22 mM HEPES) twenty-four hours after plating. Each group was divided into three subsets: cells receiving no treatment; cells receiving vehicle (DMSO) and cells receiving 10 μM of Compound 35.

[3] = Pharmacokinetic study, intravenous administration; conditions: mouse, in vivo, male CD-1 mice, 1 mg/kg
[4] = system: rat embryonic myocardium cell line H9C2; experiment: Doxorubicin-induced apoptosis, CellTiter-Glo cell viability; conditions: for recovery, percent of original density: H9C2, 0.4 μM doxorubicin 24 hours
Method: The cells were plated into 48-well plates at 0.2×10^5 cells per well and allowed to attach overnight. […] Cell viability was measured on days 1, 2, 3, and 6 using the Promega CellTiter-Glo® Luminescent Cell Viability Assay.

IC50 (recombinant eEF2K): 800 nM
Compound: CC1(C)CCc2c1nc1sc(C(N)=O)c(N)c1c2-c1sccc1Br [Compound 34, 3-Amino-4-(3-bromo-thiophen-2-yl)-7,7-dimethyl-6,7-dihydro-5H-1-thia-8-aza-s-indacene-2-carboxylic acid amide]

IC50 (recombinant eEF2K): 400 nM | half-life [3]: 34 min | Cmax ([3]; at five minutes): 356 ng/mL
Compound: CC1(C)CCc2c(nc3sc(C(N)=O)c(N)c3c2-c2cncs2)C1 [Compound 35, 3-Amino-7,7-dimethyl-4-thiazol-5-yl-5,6,7,8-tetrahydro-thieno[2,3-b]quinoline-2-carboxylic acid amide]
percent of viable cells ([1]; MDA-MB-231, 0.4 μM doxorubicin 24 hours plus 10 μM Compound 35 twice daily for 72 hours, days 2, 4 and 6): significant decrease | percent of viable cells ([1]; MDA-MB-231, 10 μM Compound 35 without doxorubicin, by day 6): increased substantially | viability at 10 µM ([2]; Homo sapiens, MG-63, 144 h, MG63, nutrient deprivation (HBSS/22 mM HEPES), by day 6, read-out: percent viable cells): < 10% | cell growth ([2]; MG63, normal conditions (advanced MEM/glutamine/10% FBS), 10 μM): significant growth | protection of H9C2 cells from doxorubicin-induced toxicity ([4]; 0.4 μM doxorubicin 24 hours, 2 μM or 10 μM compound twice daily for 72 hours): robust, dose-dependent protection | recovery, percent of original density ([4]; 2 μM compound, by day 6): 85% | recovery, percent of original density ([4]; 10 μM compound, by day 2): 85%

IC50 (recombinant eEF2K): 400 nM
Compound: CC1CC(C)(C)Cc2nc3sc(C(N)=O)c(N)c3c(-c3cncs3)c21 (stereo not shown) [Compound 36, 3-Amino-5,7,7-trimethyl-4-thiazol-5-yl-5,6,7,8-tetrahydro-thieno[2,3-b]quinoline-2-carboxylic acid amide]

IC50 (recombinant eEF2K): 900 nM
Compound: CC1(C)CCCc2c1nc1sc(C(N)=O)c(N)c1c2-c1cc(Br)co1 [Compound 37, 3-Amino-4-(4-bromo-furan-2-yl)-8,8-dimethyl-5,6,7,8-tetrahydro-thieno[2,3-b]quinoline-2-carboxylic acid amide]

IC50 (recombinant eEF2K): 300 nM
Compound: CC1(C)CCCc2c1nc1sc(C(N)=O)c(N)c1c2-c1cncs1 [Compound 38, 3-Amino-8,8-dimethyl-4-thiazol-5-yl-5,6,7,8-tetrahydro-thieno[2,3-b]quinoline-2-carboxylic acid amide]

IC50 (recombinant eEF2K): 1400 nM
Compound: Cn1cc(-c2c3c(nc4sc(C(N)=O)c(N)c24)C(C)(C)CCC3)cn1 [Compound 39, 3-Amino-8,8-dimethyl-4-(1-methyl-1H-pyrazol-4-yl)-5,6,7,8-tetrahydro-thieno[2,3-b]quinoline-2-carboxylic acid amide]

IC50 (recombinant eEF2K): 400 nM
Compound: Cc1ncsc1-c1c2c(nc3sc(C(N)=O)c(N)c13)C(C)(C)CC2 [Compound 40, 3-Amino-7,7-dimethyl-4-(4-methyl-thiazol-5-yl)-6,7-dihydro-5H-1-thia-8-aza-s-indacene-2-carboxylic acid amide]

IC50 (recombinant eEF2K): 500 nM
Compound: Cc1nc(C)c(-c2c3c(nc4sc(C(N)=O)c(N)c24)C(C)(C)CC3)s1 [Compound 41, 3-Amino-4-(2,4-dimethyl-thiazol-5-yl)-7,7-dimethyl-6,7-dihydro-5H-1-thia-8-aza-s-indacene-2-carboxylic acid amide]

IC50 (recombinant eEF2K): 3100 nM
Compound: NC(=O)c1sc2nc3c(c(-c4cncs4)c2c1N)CCCC31CCCC1 [Compound 42]

IC50 (recombinant eEF2K): 900 nM
Compound: NC(=O)c1sc2nc3c(c(-c4cncs4)c2c1N)C1CCC3C1 (stereo not shown) [Compound 43]

Compound: COc1cccc2c1C(=O)c1c(O)c3c(c(O)c1C2=O)C[C@@](O)(C(=O)CO)C[C@@H]3O[C@H]1C[C@H](N)[C@H](O)[C@H](C)O1 [doxorubicin, reference compound]
percent of viable cells ([1]; MDA-MB-231, 0.4 μM doxorubicin for 24 hours alone, by day 6): increased slightly | proliferation of remaining viable cells ([4]; H9C2, after doxorubicin was removed after 24 hours): failed to proliferate | cell death ([4]; H9C2, control arm, 0.4 μM doxorubicin for 24 hours): 65%

Source: US10106552B2, “Compounds inhibiting eukaryotic elongation factor 2 kinase activity” (Longevica Pharmaceuticals, Inc., priority 2013, dated 2018)
